Reference: patent US11667643B2, “RIP1K inhibitors” (priority 2020, dated 2023)
pIC50: −log10 of the molar value. Read-outs that look alike come from different tables or passages of the source.

Key:
[1] = test system: L929 cells; experiment: L929 cell necroptosis assay (TNFa + zVAD, CellTiter-Glo recovery), functional murine RIP1 assay; type: cell-based
Protocol: (§1) In this example, U937 and L929 cells were exposed to compounds of the present disclosure and a cell necroptosis assay was conducted to evaluate compound activity in functional human RIP1 and murine RIP1 assays.
(§2) U937 and L929 cells were obtained from the American Type Culture Collection (Manassa, Va., USA). Both cells were maintained in logarithmic growth phase in complete RPMI 1640 media (Sigma, ST Louis, Mo., USA) supplemented with 10% fetal bovine serum (Sigma, ST Louis, Mo., USA) at 37° C. with 5% CO2. For necroptosis assay, L929 cells were plated for 18 h in 100 μL/well medium at 10K cells/well in Costar 96-well black clear-bottom plates (Fisher Scientific, Hampton, N.H., USA); U937 cells were plated on the day of the assay in 50 μL/well medium containing 60 uM zVAD-fmk (Lonza, Basel, Switzerland) at 50K cells/well. Medium from L929 cells were removed from the 96-well plates and replaced with 50 μL/well new medium containing 40 uM zVAD-fmk. Each compound of the present disclosure evaluated in this example was serially diluted in DMSO from 2.5 mM in 4-fold dilutions, and then diluted 1:125 in complete medium. 50 μL/well 2× of the compound was then added to the cells in the plates. The cells were pre-incubated with the compound for 1 hour at 37° C. with 5% CO2 and before addition of 10 μL/well 11×TNFa (Peprotech, Rocky Hill, N.J., USA) to give a final concentration of 2 ng/mL for TNFa. The relative amount of necroptosis cells was determined by luminescent using a Wallac Victor2 Luminometer (PerkinElmer, Waltham, Mass., USA) and a CellTiter-Glo® Luminescent Cell Viability Reagent Assay (Promega, Madison, Wis., USA) added per manufacturer instructions after 18 hours of TNFa stimulation at 37° C. with 5% CO2. This example establishes that embodiments of the compounds described herein have unexpectedly potent activity against human RIP1 and murine RIP1, which allows their assessment in in vivo mouse models of disease.

[2] = test system: U937 cells; experiment: U937 cell necroptosis assay (TNFa + zVAD, CellTiter-Glo recovery), functional human RIP1 assay; type: cell-based
Protocol: as §1, §2

[3] = Mus musculus, L929, 18 h, read-out: L929-CTG-recovery, L929, TNFa + zVAD (IC50), L929 cells, zVAD-fmk, TNFa 2 ng/mL, 18 hours, CellTiter-Glo
[4] = Homo sapiens, U-937, 18 h, read-out: U937 Zvad TNF CTG Recovery, U937, TNFa + zVAD (IC50), U937 cells, zVAD-fmk, TNFa 2 ng/mL, 18 hours, CellTiter-Glo
[5] = read-out: L929-CTG-recovery, L929, TNFa + zVAD (IC50), L929 cells, zVAD-fmk, TNFa 2 ng/mL, 18 hours, CellTiter-Glo
[6] = read-out: U937 Zvad TNF CTG Recovery, U937, TNFa + zVAD (IC50), U937 cells, zVAD-fmk, TNFa 2 ng/mL, 18 hours, CellTiter-Glo

Row | SMILES | pIC50 [1, 3] | pIC50 [2, 4] | pIC50 [1, 5] | pIC50 [2, 6]
1 | CC(C)(O)C#Cc1ccc2c(c1)-n1ccnc1[C@@H](NC(=O)c1n[nH]c(Cc3ccccc3)n1)CC2 [Compound I-82, (S)-5-Benzyl-N-(9-(3-hydroxy-3-methylbut-1-yn-1-yl)-5,6-dihydro-4H-benzo[f]imidazo[1,2-a]azepin-4-yl)-1H-1,2,4-triazole-3-carboxamide] | 5.28 | 8.08 | – | –
2 | O=C(NC1CCc2ccccc2-n2ccnc21)c1ncn(Cc2c(Cl)cccc2Cl)n1 (single isomer, unassigned) [Compound I-13] | – | – | 5.47 | 8.52
3 | O=C(NC1CCc2ccccc2-n2ccnc21)c1ncn(Cc2c(Cl)cccc2Cl)n1 (single isomer, unassigned) [Compound I-12] | – | – | 2.00 | 4.77
4 | O=C(NC1CCc2ccccc2-n2ccnc21)c1n[nH]c(Cc2ccccc2)n1 (single isomer, unassigned) [Compound I-4] | – | – | 2.00 | 6.69
5 | O=C(N[C@H]1COc2ccccc2-n2nnnc21)c1ncnn1Cc1c(Cl)cccc1Cl [Compound I-10, (R)-1-(2,6-Dichlorobenzyl)-N-(4,5-dihydrobenzo[6]tetrazolo[1,5-d][1,4]oxazepin-4-yl)-1H-1,2,4-triazole-5-carboxamide] | 2.00 | 2.30 | – | –
6 | CC(C)(O)C#Cc1ccc2c(c1)-n1ccnc1C(NC(=O)c1n[nH]c(Cc3ccccc3)n1)CC2 (racemic) [Compound I-55, (±)-5-Benzyl-N-(9-(3-hydroxy-3-methylbut-1-yn-1-yl)-5,6-dihydro-4H-benzo[f]imidazo[1,2-a]azepin-4-yl)-1H-1,2,4-triazole-3-carboxamide] | 5.02 | 7.69 | – | –
7 | O=C(NC1CCc2ccccc2-n2ccnc21)c1n[nH]c(Cc2ccccc2)n1 (single isomer, unassigned) [Compound I-5] | 2.00 | – | – | 4.06
8 | O=C(NC1CCc2ccccc2-n2ccnc21)c1ncnn1Cc1c(Cl)cccc1Cl (racemic) [Compound I-6, (±)-1-(2,6-Dichlorobenzyl)-N-(5,6-dihydro-4H-benzo[f]imidazo[1,2-a]azepin-4-yl)-1H-1,2,4-triazole-5-carboxamide] | 2.00 | 3.05 | – | –
9 | CC(C)(O)C#Cc1ccc2c(c1)-n1nnnc1[C@@H](NC(=O)c1cc(O)n(Cc3ccccc3)n1)CO2 [Compound I-76, (R)-1-Benzyl-5-hydroxy-N-(9-(3-hydroxy-3-methylbut-1-yn-1-yl)-4,5-dihydrobenzo[b]tetrazolo[1,5-d][1,4]oxazepin-4-yl)-1H-pyrazole-3-carboxamide] | 2.00 | 2.00 | – | –
10 | CC(C)(O)C#Cc1ccc2c(c1)-n1ccnc1C(NC(=O)c1n[nH]c(Cc3ccccc3)n1)CO2 (racemic) [Compound I-90, (±)-5-Benzyl-N-(9-(3-hydroxy-3-methylbut-1-yn-1-yl)-4,5-dihydrobenzo[b]imidazo[1,2-d][1,4]oxazepin-4-yl)-1H-1,2,4-triazole-3-carboxamide] | 2.00 | 6.77 | – | –
11 | O=C(NC1CCc2ccccc2-n2c1nc(Cl)c2Cl)c1cc(Cc2ccccc2)on1 (racemic) [Compound I-70, (±)-5-Benzyl-N-(1,2-dichloro-5,6-dihydro-4H-benzo[f]imidazo[1,2-a]azepin-4-yl)isoxazole-3-carboxamide] | 2.00 | 4.13 | – | –
12 | Cc1cnc2n1-c1ccccc1CCC2NC(=O)c1n[nH]c(Cc2ccccc2)n1 (racemic) [Compound I-40, (±)-5-Benzyl-N-(1-methyl-5,6-dihydro-4H-benzo[f]imidazo[1,2-a]azepin-4-yl)-1H-1,2,4-triazole-3-carboxamide] | 2.00 | 2.00 | – | –
13 | CC(C)(O)C#Cc1ccc2c(c1)-n1ccnc1[C@H](NC(=O)c1n[nH]c(Cc3ccccc3)n1)CO2 [Compound I-91, (S)-5-Benzyl-N-(9-(3-hydroxy-3-methylbut-1-yn-1-yl)-4,5-dihydrobenzo[b]imidazo[1,2-d][1,4]oxazepin-4-yl)-1H-1,2,4-triazole-3-carboxamide] | 2.00 | 2.00 | – | –
